Values of other authors in patent publication US6495170B1, “Method of increasing the presence of glutathione in cells” (N. V. Nutricia, priority 2000, dated 2002).

Experiments:
[1] = test system: γ-GCS; conditions: mediated by increased expression of γ-GCS mRNA and enzyme activity via AP-1
[2] = ingested in large amounts
[3] = test system: hepatoblastoma Hep G2 cells
[4] = mice, ethanol-induced liver peroxidation, pretreatment 200 mg/kg
[5] = 50 mg/kg p.o., mice treated with CCl4
[6] = 200 μg/day supplement for 2 months
[7] = test system: mitochondrial GSH
[8] = test system: human erythrocytes
[9] = test system: human neutrophils
[10] = test system: glutathione-S-transferase
[11] = test system: hepatic glutathione; conditions: induced by ethyl alcohol and paracetamol, rats
[12] = test system: isolated rat hepatocytes

COc1cc(C(C)=O)ccc1O [Apocynin]
intracellular GSH synthesis [1]: enhances

CC(=O)Nc1ccc(O)cc1 [Acetaminophen, acetaminophen]
hepatotoxicity [2]: severe hepatic necrosis

[Zn] [zinc, Zinc]
plasma zinc bound to RBP: < 2%
plasma zinc bound to albumin: 80-85%
plasma zinc bound to alpha2-macroglobulin: 15%

silymarin
acetaminophen-induced GSH depletion and cytotoxicity [3]: protects

COc1cc2c(c(O)c1OC)-c1c(cc(OC)c(OC)c1OC)C[C@@H](C)[C@@H](C)C2 [schisanhenol]
GSH-peroxidase activity [4]: unaffected
dismutase and catalase activity [4]: increased

COc1cc(C(=O)O[C@H]2[C@@H]3C=CO[C@@H](O[C@@H]4O[C@H](CO)[C@@H](O)[C@H](O)[C@H]4O)[C@@H]3[C@@]3(CO)O[C@@H]23)ccc1O [Picroside II]
hepatoprotective activity [5]: showed a hepatoprotective activity

[Se] [Selenium]
peroxidative parameters [6]: no effect
plasma selenium levels and glutathione peroxidase [6]: significantly improved

COc1cc2c(c(OC)c1OC)-c1c(cc3c(c1OC)OCO3)CC(C)C(C)C2 (stereo not shown) [schisandrin B]
GSH-peroxidase activity [4]: unaffected
dismutase and catalase activity [4]: increased
GSH/GSSG ratio ([7]; 3 mmol/kg/day p.o.): elevating
GSSG level ([7]; 3 mmol/kg/day p.o.): decreased
mitochondrial GSH level ([7]; 3 mmol/kg/day p.o.): increased
mitochondrial GSH reductase activity ([7]; 3 mmol/kg/day p.o.): increased

COc1cc(C2Oc3cc([C@H]4Oc5cc(O)cc(O)c5C(=O)[C@@H]4O)ccc3OC2CO)ccc1O (stereo partly shown) [silybin]
activity of superoxide dismutase and glutathione peroxidase [8]: increased
superoxide and hydrogen peroxide production [9]: inhibitory effects
inhibition of glutathione-S-transferase [10]: potent, non-toxic, inhibitor
hepatic glutathione depletion [11]: protect
GSH depletion by buthionine sulfoximide [12]: does not affect
GSH depletion induced by acetaminophen [12]: reduces

O=NN(CCCl)C(=O)NCCCl [BCNU]
GSH reductase activity ([7]; CCl4-intoxicated mice): inhibited
effect on the protective activity of schisandrin B ([7]; CCl4-intoxicated mice): did not affect
